Earlier results as cited in patent publication US20110160463A1, “PROCESS FOR MAKING SUBSTITUTED 2-AMINO-THIAZOLONES” (Amgen Inc., priority 2008, published 2011).

Columns and labels:
11βHSD1 [1] = biological target: T1, 11βHSD1 (Homo sapiens, UniProt P28845); details: ingestion, normal subjects
T1 construct: reduce the intraocular pressure by 20% in normal subjects; host or cells: endogenous enzyme in living subjects (eye)
T1 sequence (P28845 whole entry): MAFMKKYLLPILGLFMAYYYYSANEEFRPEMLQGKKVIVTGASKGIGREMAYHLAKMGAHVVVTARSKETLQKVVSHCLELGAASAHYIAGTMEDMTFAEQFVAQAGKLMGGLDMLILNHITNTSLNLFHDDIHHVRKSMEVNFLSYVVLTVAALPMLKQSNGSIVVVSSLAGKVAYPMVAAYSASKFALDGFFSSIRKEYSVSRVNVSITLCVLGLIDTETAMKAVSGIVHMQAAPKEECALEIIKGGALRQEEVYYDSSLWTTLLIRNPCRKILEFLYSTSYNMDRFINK

11βHSD1 [2] = biological target: T2, 11βHSD1 (Homo sapiens, UniProt P28845); details: healthy human volunteers
T2 construct: Hepatic insulin sensitivity was improved in healthy human volunteers; host or cells: endogenous enzyme in human volunteers (liver)
T2 sequence (P28845 whole entry): as above

Which “reduction of the intraocular pressure” value (11βHSD1 [1]) does the source give for `CC1(C)[C@@H](OC(=O)CCC(=O)O)CC[C@]2(C)[C@H]3C(=O)C=C4[C@@H]5C[C@@](C)(C(=O)O)CC[C@]5(C)CC[C@@]4(C)[C@]3(C)CC[C@@H]12` [carbenoxolone] here?
The value was 20%.

What about the “negative effect (of glucocorticoids) on bone nodule formation” value (bone nodule formation) of the same compound?
Its value is “blocked”.

And the hepatic insulin sensitivity (11βHSD1 [2])?
The hepatic insulin sensitivity was “improved”.
